In ChEMBL document CHEMBL4000189, “Novel reversible methionine aminopeptidase-2 (MetAP-2) inhibitors based on purine and related bicyclic templates” (Bioorg Med Chem Lett, 2017):
pIC50: −log10 of the molar value. ≈ marks a conversion by molar mass, not a printed value.

Assays:
[1] = target: Methionine aminopeptidase 2 (Homo sapiens, UniProt P50579); assay: Inhibition of recombinant human N-terminal His tagged MetAP-2 using tripeptide Met-Ala-Ser as substrate preincubated for 15 mins followed by substrate addition measured after 45 mins by L-amino acid oxidase enzyme coupled assay
[2] = Thermodynamic solubility of the compound; type: physicochemical; settings: read-out: Therm_solubility
[3] = Permeability in human Caco2 cells; type: ADME, cell-based; settings: Caco-2, read-out: permeability

Sequence of Methionine aminopeptidase 2 (P50579 whole entry): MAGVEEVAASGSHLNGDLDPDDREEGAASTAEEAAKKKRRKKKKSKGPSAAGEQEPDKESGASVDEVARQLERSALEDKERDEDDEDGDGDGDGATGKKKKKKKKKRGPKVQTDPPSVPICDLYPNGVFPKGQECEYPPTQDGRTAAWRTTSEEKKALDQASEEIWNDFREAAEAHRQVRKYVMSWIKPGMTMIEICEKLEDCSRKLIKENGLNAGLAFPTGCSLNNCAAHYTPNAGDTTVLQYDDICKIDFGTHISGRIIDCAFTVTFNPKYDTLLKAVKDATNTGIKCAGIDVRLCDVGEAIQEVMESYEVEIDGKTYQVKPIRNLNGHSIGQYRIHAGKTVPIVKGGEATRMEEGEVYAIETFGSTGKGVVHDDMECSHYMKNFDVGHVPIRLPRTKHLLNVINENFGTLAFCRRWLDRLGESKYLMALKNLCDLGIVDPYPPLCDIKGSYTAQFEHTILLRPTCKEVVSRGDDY

| Compound | pIC50 [1] | solubility thermodynamic [2] [µg/mL] | Papp [3] [×10⁻⁶ cm/s] |
| --- | --- | --- | --- |
| Clc1ccccc1OC[C@H]1CCCN1c1ncnc2ncccc12 | < 4.30 |  |  |
| c1ccc2c(OC[C@H]3CCCN3c3ccnc4ncnn34)cncc2c1 |  | 171 (≈ 494 µM) | 21 |
| Fc1cccc(OC[C@H]2CCCN2c2ncnc3[nH]ccc23)c1 | < 4.30 |  |  |
